The record followed here is article PMC11192711, “Automated radiosynthesis and preclinical evaluation of two new PSMA-617 derivatives radiolabelled via [^18F]AlF^2+ method” (EJNMMI Radiopharmacy and Chemistry, 2024).

The nature of data set [1]: Stability in final solution (analytical HPLC and radio-TLC). Format: physicochemical. Conditions: up to four hours after end of radiosynthesis, room temperature, HPLC and radio-TLC. Here is the method:
Chemical and radiochemical stability in the final solution were tested by analytical HPLC and radio-TLC (Additional file 1: S37–S41); samples of the purified product were analyzed up to four hours after the end of radiosynthesis, at time intervals of two hours and storing the vial at room temperature.
Stability in solution of [^18F]F-PSMA-617-NODA ([^18F]1) and [^18F]F-PSMA-617-RESCA ([^18F]2) were evaluated injecting in RP-HPLC (for experimental conditions, see sections “(((S)-5-((S)-2-((1R,4S)-4-((4-(4,7-bis(carboxymethyl)-1,4,7-triazonan-1-yl)butanamido)methyl)cyclohexane-1-carboxamido)-3-(naphthalen-2-yl)propanamido)-1-carboxypentyl)carbamoyl)-L-glutamic acid [^18F] aluminium fluoride ([^18F] 1)” and “(((S)-5-((S)-2-((1R,4S)-4-((2-(4-((((1R,2R)-2-(bis(carboxymethyl)amino)cyclohexyl)(carboxymethyl)amino)methyl)phenyl)acetamido)methyl)cyclohexane-1-carboxamido)-3-(naphthalen-2-yl)propanamido)-1-carboxypentyl)carbamoyl)-L-glutamic acid [18F] aluminium fluoride ([18F] 2)”) samples (20 µl) of respective radiopharmaceutical solutions at t = 0 (EOS), after 2 h and after 4 h. Moreover, ≈ 7.5 kBq of [^18F]1 or [^18F]2 solution were deposited on TLC sheet. The TLC was imaged using Cyclone® Plus Phosphor Scanner and software OptiQuant™.

The nature of data set [2]: Stability in human plasma (HPLC, radio-TLC, pellet/supernatant activity). Format: in vitro ADME. The conditions noted are these: for Stability in human plasma: 37 °C, up to 4 h, HPLC and radio-TLC; for Pellet activity / Supernatant activity: ACN precipitation. How it is done: Stability in plasma was evaluated mixing aliquots of [^18F]1 or [^18F]2 solutions (10 MBq for 2 h incubation and 20 MBq for 4 h incubation samples) with 200 µL of human serum. The mixtures were incubated at 37 °C. Aliquots were taken at 2 h and 4 h. Plasma pellet was precipitated with 200 µL acetonitrile and centrifuged (13,500 rpm, 10 min). The supernatant was removed, and the activity of the supernatant solution and pellet was measured using a dose calibrator (VIK-202 Comecer). The supernatant solution was analyzed injecting in RP-HPLC (diluted 1:5 in water) and Radio-TLC as above described.

Setting [3] is: [18F]1, 2 h incubation in plasma, total activity incubated 3.6 MBq.
The mark [4] stands for this setting: [18F]1, 4 h incubation in plasma, total activity incubated 3.89 MBq.

As to `O=C(O)CCC(NC(=O)NC(CCCCNC(=O)C(Cc1ccc2ccccc2c1)NC(=O)C1CCC(CNC(=O)CCCN2CCN(CC(=O)O)CCN(CC(=O)O)CC2)CC1)C(=O)O)C(=O)O.[18F][Al]` [[^18F]F-PSMA-617-NODA, (((S)-5-((S)-2-((1R,4S)-4-((4-(4,7-bis(carboxymethyl)-1,4,7-triazonan-1-yl)butanamido)methyl)cyclohexane-1-carboxamido)-3-(naphthalen-2-yl)propanamido)-1-carboxypentyl)carbamoyl)-L-glutamic acid [^18F] aluminium fluoride], the “Chemical and radiochemical stability in the final solution” value in data set [1] (listed as [^18F]1) was “stable and no loss of radioactivity due to radiolytic degradation and aluminum fluoride release were detected”; in data set [1] (listed as [^18F]PSMA-617-NODA) it was “neither the release of [^18F]AlF^2+ in solution, nor the formation of other degradation by-products was noticed”. Besides, the “Stability in human plasma” value was “stable” in data set [2] (listed as [^18F]1) and “no substantial release of [^18F]AlF^2+” in data set [2] (listed as [^18F]PSMA-617-NODA). For the same molecule, the Pellet activity in data set [2] (setting [3]) is given as 0.4 MBq; in data set [2] (setting [4]) it was 0.45 MBq. The values for the Supernatant activity in data set [2] (setting [3]) and in data set [2] (setting [4]) were 3.2 MBq and 3.44 MBq, respectively. Further, the protein uptake in data set [2] (stability tests in human plasma) is on record as ~ 11%.
